Reference: patent EP4759810A1, “PROTAC TARGETING BCL-XL PROTEIN AND USE THEREOF” (BEIJING SUNCELL BIO-MEDICAL CO., LTD., priority 2023, dated 2025)
Read-outs that look alike come from different tables or passages of the source.

Legend:
[1] = molecular target: T1, Bcl-xL protein (Homo sapiens, UniProt Q07817); assay: Degradation experiment of Bcl-xL target protein (Western blot in Molt-4 cells); format: cell-based; settings: 100 nM, 0, 2, 6, 16 h, GAPDH internal control, Figure 4
T1 construct: host or cells: Molt-4 cells
Experimental: Actively growing and healthy Molt-4 cells were subcultured into a fresh RPMI-1640 medium containing 10% fetal bovine serum, and each PROTAC molecule was added thereto at a final concentration of 100 nM. After drug treatment for the specified times (0, 2, 6, and 16 hours), the cells were collected, the supernatant was discarded by centrifugation, and the cells were washed twice with pre-cooled PBS buffer. Total protein was extracted with a lysis buffer (Servicebio, G2002-100ML), and the protein concentration was normalized by using a BCA protein quantification kit (Servicebio, G2026). Protein samples were mixed with a protein-loading buffer and incubated at 95°C for 5 minutes. Western blotting experiments were performed by using the following antibodies: Bcl-xL (Abcam, catalog number ab32370), diluted at 1:500; GAPDH antibody (Servicebio, catalog number GB15004), diluted at 1:1000; and horseradish peroxidase-conjugated goat anti-rabbit secondary antibody (Servicebio, catalog number GB23303), diluted at 1:5000.

[2] = system: Molt-4 cells; assay: Molt-4 cell killing activity test (CCK-8); format: cell-based; settings: for EC50: Homo sapiens; for killing Molt-4 cells at different concentrations (Figure 1), in words: 0.001-3 µM, comparison with control molecules
Experimental: (§1) Molt-4 cells were cultured and amplified in 10 cm dishes by using RPMI-1640 medium supplemented with 10% fetal bovine serum. Actively growing and healthy Molt-4 cells were collected, centrifuged at 1000 rpm for 5 minutes, and after removing the supernatant, the cells were resuspended in fresh RPMI-1640 medium containing 10% fetal bovine serum. Cell counting was then performed. The cell density was adjusted to 120,000 cells per milliliter, and 100 µL of the cell suspension was added to each well of a 96-well transparent cell culture plate. It was noted that the edge wells of the 96-well plate were not used for testing; and 300 µL of PBS alone was added to these wells to reduce medium evaporation.
The small molecule compounds to be tested for activity were prepared. A series of small molecule concentration gradients (0.001, 0.003, 0.01, 0.03, 0.1, 0.3, 1, and 3 µM) were pre-set, and a series of 2× drug dilutions for the above concentrations were prepared in RPMI-1640 medium containing 10% fetal bovine serum. 100 µL of the above medium containing the gradient concentrations of the drug was added to each well of a 96-well plate pre-seeded with cells, so that the final drug concentration in each well was the pre-set concentration gradient. Three replicate wells were used for each tested drug concentration. The 96-well plate was placed back in a 37°C incubator, and the cell viability was measured after three days.
The plate was taken out three days after adding the drugs, and 100 µL of pre-prepared CCK-8 working solution was added to each well. The CCK-8 working solution was obtained through diluting a CCK-8 stock solution (C0041, Beyotime) by 10-fold volumn with a serum-free RPMI-1640 medium. The 96-well plates with the added CCK-8 working solution were placed back in the 37°C incubator and incubated for 0.5-2 hours. The plates were then taken out, and the absorbance value (OD value) of each well was measured at a wavelength of 450 nm, and the cell viability in each experimental group was calculated according to the following formula: Relative cell viability (%) = […] × 100%.

[3] = system: Molt-4 cells; assay: Detection of E3 enzyme-dependence: Molt-4 cell killing with or without pomalidomide (CCK-8); format: cell-based; settings: 10 µM pomalidomide, Figure 2
Experimental: as §1, with “Actively” for “Molt-4 cells were cultured and amplified in 10 cm dishes by using RPMI-1640 medium supplemented with 10% fetal bovine serum. Actively”, “testing,” for “testing;”
Molt-4 cells were plated in duplicate according to the number of the tested small molecules, so as to test the effects with and without the addition of pomalidomide (a competitive ligand specific for E3 ligase), in which one half of the parallel cells was added 10 µM pomalidomide. A series of small molecule concentration gradients (0.001, 0.003, 0.01, 0.03, 0.1, 0.3, 1, and 3 µM) were pre-set, and a series of 2× drug dilutions for the above concentrated were prepared in DMEM medium containing 10% fetal bovine serum. 100 µL of the above DMEM medium containing the gradient concentrations of the drug was added to 96-well plates that have been pre-plated with cells, so that the final drug concentration in each well was the pre-set series of concentrations respectively. Three replicate wells were used for each test drug concentration. The 96-well plates were placed back in a 37°C incubator, and the cell viability was detected after three days.
Cell viability after drug treatment was detected by using the CCK-8 method: three days after adding the drugs, the plates were taken out, and the supernatant was discarded. Then, 100 µL of pre-prepared CCK-8 working solution was added to each well. The CCK-8 working solution was obtained through diluting a CCK-8 stock solution (C0041, Beyotime) by 10-fold volumn with a serum-free DMEM culture medium. The 96-well plates with the added CCK-8 working solution were placed back in the 37°C incubator and incubated for 0.5-2 hours. The plates were then taken out, and the absorbance value (OD value) of each well was measured at a wavelength of 450 nm. The cell viability in each experimental group was calculated according to the following formula: Relative cell viability (%) = (Blank control group - Experimental group) / Blank control group × 100%.

[4] = system: HEF cells; assay: Senescent cell killing activity test, HEF cell model (CCK-8); format: cell-based, human
Experimental: To avoid replication of the induced senescent cells, low-passage proliferating HEF cells (<10 passages), MRC5 cells (<6 passages), and BJ cells (<10 passages) were used as normal controls. For chemical drug induced senescence, HEF cells were treated with 10 µM etoposide (Selleck, S1225) for 36-48 hours, MRC5 cells were treated with 5 µM bleomycin (Selleck, S1225) for 72 hours, and BJ cells were treated with 10 µg/mL bleomycin for 72 hours. Three days after the treatment, the cells were subcultured in fresh culture medium at a 1:3 ratio for 72 hours before further analysis and use.
Non-senescent and induced-senescent HEF cells, non-senescent and induced-senescent MRC5 cells, and non-senescent and induced-senescent BJ cells were respectively digested with trypsin, and centrifuged at 1000 rpm for 5 minutes. Then, the supernatant was removed, and the cells were resuspended in fresh DMEM culture medium containing 10% fetal bovine serum for counting. The cell density was adjusted so that the non-senescent cell density was 4000 cells/100 µL and the senescent cell density was 7000 cells/100 µL. 100 µL of the cell suspension was added to each well of a 96-well transparent cell culture plate. It was noted that the edge wells of the 96-well plate were not used as testing wells, and 300 µL of PBS alone was added to these wells to reduce evaporation of the culture medium. The 96-well plates with the well-plated cells were placed back in a 37°C incubator for overnight culture until the cells adhered. On the next day, the small molecule compounds to be tested were prepared and added after the cells had adhered.
A series of small molecule concentration gradients (0.01, 0.03, 0.1, 0.3, 1, 3, 10, and 25 µM) were pre-set, and a series of 2× drug dilutions for the above concentrations were prepared in DMEM culture medium containing 10% fetal bovine serum. 100 µL of the above DMEM culture medium containing the gradient concentrations of the drug was added to each well of the 96-well plate that had been well-plated with cells, so that the final drug concentration in each well was the pre-set series of concentrations. Three replicate wells were used for each test drug concentration. The 96-well plates were placed back in a 37°C incubator, and cell viability was measured after three days.
Three days after adding the drug, the plates were taken out, and the supernatant was discarded. 100 µL of pre-prepared CCK-8 working solution was added to each well. The CCK-8 working solution was obtained through diluting a CCK-8 stock solution (C0041, Beyotime) with a serum-free DMEM culture medium by 10-fold volumn. The 96-well plates containing the CCK-8 working solution were placed back in the 37°C incubator and incubated for 0.5-2 hours. The plates were then taken out, and the absorbance value (OD value) of each well was measured at a wavelength of 450 nm. The cell viability in each experimental group was calculated according to the following formula: Relative cell viability (%) = (Blank control group - Experimental group) / Blank control group × 100%.

[5] = 72 h, Molt-4 cells, three days, CCK-8, read-out: EC50 (Molt-4)
[6] = Bcl-xL-positive Molt-4 cells, read-out: cellular activity / killing activity (Molt-4 cells)

T1 sequence (Q07817 whole entry): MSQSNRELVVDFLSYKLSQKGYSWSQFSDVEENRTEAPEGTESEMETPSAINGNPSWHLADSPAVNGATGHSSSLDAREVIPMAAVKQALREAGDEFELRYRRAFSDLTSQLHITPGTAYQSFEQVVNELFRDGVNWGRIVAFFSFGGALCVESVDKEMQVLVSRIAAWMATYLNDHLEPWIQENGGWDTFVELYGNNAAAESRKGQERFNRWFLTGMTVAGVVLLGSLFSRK

SMILES	degradation of the Bcl-xL protein [1]	EC50 [2, 5]	EC50 [2, 6]	killing Molt-4 cells at different concentrations (Figure 1), in words [2]	cell killing activity after addition of pomalidomide (+poma) compared to without (-poma) [3]	killing senescent HEF cells ([4]; etoposide-induced senescent vs normal HEF cells, Figures 3A-3F)	toxicity on normal non-senescent HEF cells ([4]; higher concentration (25 µM))
Cc1cc([C@H](C(=O)N2C[C@H](O)C[C@H]2C(=O)N[C@@H](CC(=O)N2CCC(CN3CCN(CC#Cc4ccc(OCCCc5ccc(N6CCc7cccc(C(=O)Nc8nc9ccccc9s8)c7C6)nc5C(=O)O)c(F)c4)CC3)CC2)c2ccc(-c3scnc3C)cc2)C(C)C)on1 [APH7]	had the ability to degrade the Bcl-xL protein	10 to 100 nM	–	–	–	–	–
Cc1cc([C@H](C(=O)N2C[C@H](O)C[C@H]2C(=O)N[C@@H](CC(=O)N2CCC(CCN3CCN(CC#Cc4ccc(OCCCc5ccc(N6CCc7cccc(C(=O)Nc8nc9ccccc9s8)c7C6)nc5C(=O)O)c(F)c4)CC3)CC2)c2ccc(Cl)cc2)C(C)C)on1 [APH105]	had the ability to degrade the Bcl-xL protein	< 10 nM	< 10 nM	–	–	–	–
CC(C)(C)[C@H](NC(=O)C1(F)CC1)C(=O)N1C[C@H](O)C[C@H]1C(=O)N[C@@H](CC(=O)N1CCC(CCN2CCN(CC#Cc3ccc(OCCCc4ccc(N5CCc6cccc(C(=O)Nc7nc8ccccc8s7)c6C5)nc4C(=O)O)c(F)c3)CC2)CC1)c1ccc(Cl)cc1 [APH106]	had the ability to degrade the Bcl-xL protein	10 to 100 nM	–	–	–	–	–
CS(=O)(=O)NC(=O)c1nc(N2CCc3cccc(C(=O)Nc4nc5ccccc5s4)c3C2)ccc1CCCOc1ccc(C#CCN2CCN(CC3CCN(c4ccc(N5CCC(=O)NC5=O)cc4)CC3)CC2)cc1F [APQ10-2]	had the ability to degrade the Bcl-xL protein	< 10 nM	< 10 nM	comparable to A-1331852	significantly reduced cell killing activity	–	–
O=C1CCN(c2cc(F)c(N3CCN(CC#Cc4ccc(OCCCc5ccc(N6CCc7cccc(C(=O)Nc8nc9ccccc9s8)c7C6)nc5C(=O)O)c(F)c4)CC3)cc2F)C(=O)N1 [APQ904]	had the ability to degrade the Bcl-xL protein	< 10 nM	< 10 nM	comparable to A-1331852	significantly reduced cell killing activity	–	–
O=C1CCC(N2C(=O)c3cccc(NCCOCCOCCOCCOCCN4CCN(CC#Cc5ccc(OCCCc6ccc(N7CCc8cccc(C(=O)Nc9nc%10ccccc%10s9)c8C7)nc6C(=O)O)c(F)c5)CC4)c3C2=O)C(=O)N1 (stereo not shown) [BF4]	had the ability to degrade the Bcl-xL protein	10 to 100 nM	–	–	significantly reduced cell killing activity	efficiently and selectively kill senescent HEF cells	no toxicity on normal non-senescent HEF cells
